Where two headings read alike, the source gives them in different places.
What was measured:
[1] = system: LRV1 (LgyLRV1 capsid levels); assay: microbe, parasite or virus in culture; conditions: for Effect on LRV1 (capsid) levels, in words: screen at 100 μM or maximum concentration permitted by solubility
From the text: Because LRV1 (like most Totiviridae) is not shed from the cell (33, 34), we developed a flow cytometric assay to measure intracellular LRV1 capsid levels on a per cell basis. To detect LRV1 we used binding to a rabbit anti-LgyLRV1 capsid antiserum (35) followed by detection with Alexa Fluor488-conjugated goat anti-rabbit IgG.
(§1) Parasites were inoculated at 2×10^5 cells/mL into Schneider's media lacking supplemental adenine.
For capsid flow cytometry, 10^7 cells were fixed at room temperature using 2% (wt/vol) paraformaldehyde (Thermo Fisher Scientific) in PBS for 2 minutes. They were then incubated in blocking buffer [10% (vol/vol) normal goat serum (Vector Laboratories, Burlingame, Calif., USA) and 0.2% TRITON X-100 in PBS] for 30 minutes at room temperature. Anti-LgyLRV1 capsid antibody (35) was added (1:20,000 dilution) and incubated at room temperature for 1 hour. After two washes with PBS, cells were resuspended in 200 μL PBS with Alexa Fluor488-labeled goat anti-rabbit IgG (Alexafluor, Invitrogen; 1:1,000; or Thermo Fisher Scientific; 1:2,000 dilution), and incubated 1 hour at room temperature. After two additional washes with PBS, cells were subjected to flow cytometry, gating for single cells using forward and side scatter and the data analyzed using […] software (BD Bioscience, San Jose, Calif., USA).

L. guyanensis (LgyLRV1+) = assay: Drug-inhibition test: growth of LgyLRV1+ parasites; assay type: cell-based, Leishmania guyanensis
Protocol: These compounds were examined for their ability to inhibit the growth of LgyLRV1^+ and virus levels by LRV1 capsid flow cytometry.
Most studies were performed using luciferase-expressing transfectants of L. guyanensis (MHOM/BR/78/M4147) described previously [LRV1^+ LgyM4147/SSU:IR2SAT-LUC(b)c3 and LRV^−LgyM4147/pX63HYG/SSU:IR2SAT-LUC(b)c4] (54); these lines are termed LgyLRV1^+ and LgyLRV1^−, respectively. Two strains of LRV1^+L. braziliensis were examined: LEM2780 (MHOM/BO/90/CS) and LEM3874 (MHOM/BO/99/IMT252 no. 3) (12). Parasites were grown in Schneider's media (Sigma Aldrich, St. Louis, Mo., USA) prepared according to the supplier's instructions with pH adjusted to 6.5 and supplemented with 0.76 mM hemin, 2 μg/mL biopterin, 50 U/mL penicillin, 50 μg/mL streptomycin, and 10% (vol/vol) heat-inactivated FBS. Cell concentrations were determined using a Coulter Counter ([…], Indianapolis, Ind., USA).
as §1

[2] = 48 h, read-out: Percent control (LRV1 capsid)
[3] = Leishmania guyanensis, 48 h, LgyLRV1+, tested at 100 μM, growth after 2 days, read-out: Percent control (density)
[4] = LgyLRV1+, tested at 100 μM, growth after 2 days
[5] = LgyLRV1+, tested at 50 μM, 2 days
[6] = LgyLRV1+, tested at 50 μM, growth after 2 days
[7] = LgyLRV1+, tested at 100 μM, 2 days

Structure (SMILES) | activity at 100 µM [1, 2] [%] | activity at 100 µM (L. guyanensis (LgyLRV1+); [3]) [%] | Density (cells/mL) (L. guyanensis (LgyLRV1+); [4]) | LRV1 capsid (geometric mean FU) [1, 7] [FU] | further results
Nc1nc2c(ncn2COCCO)c(=O)[nH]1 [Acyclovir] | – | – | – | – | activity at 120 µM [1, 2]: 259%; activity at 120 µM (L. guyanensis (LgyLRV1+); Leishmania guyanensis, 48 h, LgyLRV1+, tested at 120 μM, growth after 2 days, read-out: Percent control (density)): 51%; Density (cells/mL) (L. guyanensis (LgyLRV1+); LgyLRV1+, tested at 120 μM, growth after 2 days): 8.55E+6 cells/mL
O=c1[nH]cc(F)c(=O)[nH]1 [5-Fluorouracil] | 193 | 5 | 9.05E+5 | – | LRV1 capsid (geometric mean FU) [1]: 512 FU
C#C[C@@]1(O)[C@H](O)[C@@H](CO)O[C@H]1n1ccc2c(N)ncnc21 [NITD008, 7-(2-Ethynyl-β-D-ribofuranosyl)-7H-pyrrolo[2,3-d]pyrimidine-4-amine] | – | – | – | – | activity at 1 µM [1, 2]: 37%; LRV1 capsid (geometric mean FU) ([1]; LgyLRV1+, tested at 1 μM, 2 days): 98 FU; Effect on LRV1 (capsid) levels, in words ([1]; 2 days): little effect on LRV1; activity at 1 µM (L. guyanensis (LgyLRV1+); Leishmania guyanensis, 48 h, LgyLRV1+, tested at 1 μM, growth after 2 days, read-out: Percent control (density)): 61%; Density (cells/mL) (L. guyanensis (LgyLRV1+); LgyLRV1+, tested at 1 μM, growth after 2 days): 1.02E+7 cells/mL
CCOC(=O)[C@H]1O[C@@H]1C(=O)N[C@@H](CC(C)C)C(=O)NCCC(C)C [e64d, E64-d] | – | – | – | – | activity at 10 µM [1, 2]: 37%; LRV1 capsid (geometric mean FU) ([1]; LgyLRV1+, tested at 10 μM, 2 days): 97 FU; activity at 10 µM (L. guyanensis (LgyLRV1+); Leishmania guyanensis, 48 h, LgyLRV1+, tested at 10 μM, growth after 2 days, read-out: Percent control (density)): 90%; Density (cells/mL) (L. guyanensis (LgyLRV1+); LgyLRV1+, tested at 10 μM, growth after 2 days): 1.52E+07 cells/mL
O=c1cn[nH]c(=O)[nH]1 [Compound 6-Azauracil, 6-Azauracil] | 102 | 71 | 1.20E+7 | – | LRV1 capsid (geometric mean FU) [1]: 271 FU
CCCNC(=O)[C@H]1O[C@@H]1C(=O)N[C@H](C(=O)N1CCC[C@H]1C(=O)OC)[C@@H](C)CC [CA-074-Me, CA-074 Me] | – | – | – | – | LRV1 capsid (geometric mean FU) [1, 5]: 83 FU; Percent control (LRV1 capsid) [1, 5]: 31 Percent control; Effect on LRV1 (capsid) levels, in words ([1]; 2 days): only minimal effects; Density (cells/mL) (L. guyanensis (LgyLRV1+); [6]): 1.00E+07 cells/mL; Percent control (density) (L. guyanensis (LgyLRV1+); [6]): 60 Percent control; Effect on L. guyanensis growth, in words (L. guyanensis (LgyLRV1+); screen at 100 μM or maximum concentration permitted by solubility, 2 days): no effects
C[C@H](Cn1cnc2c(N)ncnc21)OCP(=O)(O)O.O [Tenofovir, Tenofovir monohydrate] | – | – | 8.90E+6 | 206 | Percent control (LRV1 capsid) [1, 7]: 78 Percent control; Percent control (density) (L. guyanensis (LgyLRV1+); [4]): 53 Percent control
Nc1nc2nn[nH]c2c(=O)[nH]1 [Compound 8-Azaguanine, 8-Azaguanine] | 100 | 34 | 5.68E+6 | – | LRV1 capsid (geometric mean FU) [1]: 264 FU
Nc1nc(O)c2ncn(COC(CO)CO)c2n1 [Ganciclovir] | – | – | – | – | activity at 40 µM [1, 2]: 75%; LRV1 capsid (geometric mean FU) ([1]; LgyLRV1+, tested at 40 μM, 2 days): 198 FU; activity at 40 µM (L. guyanensis (LgyLRV1+); Leishmania guyanensis, 48 h, LgyLRV1+, tested at 40 μM, growth after 2 days, read-out: Percent control (density)): 58%; Density (cells/mL) (L. guyanensis (LgyLRV1+); LgyLRV1+, tested at 40 μM, growth after 2 days): 9.78E+6 cells/mL
NC(=O)c1nc(F)c[nH]c1=O [Compound T-705, Favipiravir] | 60 | 67 | 1.13E+7 | 161 | –
CN(C)c1ncnc2c1ncn2[C@@H]1O[C@H](CO)[C@@H](O)[C@H]1O [Chembridge 5790592, N,N-dimethyl adenosine] | 108 | 1 | 1.00E+5 | – | LRV1 capsid (geometric mean FU) [1]: 287 FU
Nc1ncnc2c1ncn2[C@@H]1O[C@H](CO)[C@@H](O)[C@H]1F [2′-Fluoro-2′-deoxyadenosine] | 97 | 123 | 2.07E+7 | 257 | –
[H]/N=C(/N)NS(=O)(=O)c1ccc(N)cc1 [Sulfaguanidine] | 98 | 68 | 1.15E+7 | 260 | –
O=c1[nH]cnc2c1ncn2[C@H]1CC[C@@H](CO)O1 [Didanosine] | 68 | – | 1.80E+7 | 182 | activity at 100 µM (L. guyanensis (LgyLRV1+); Leishmania guyanensis, 48 h, read-out: Percent control (density)): 107%
CC(C)OC(=O)[C@H](C)N[P@](=O)(OC[C@H]1O[C@@H](n2ccc(=O)[nH]c2=O)[C@](C)(F)[C@@H]1O)Oc1ccccc1 [PSI-7977, 2-((5-(2,4-dioxo-3,4-dihydro-2H-pyrimidin-1-yl)-4-fluoro-3-hydroxy-4-methyltetrahydrofuranyl-2-methoxy)phenoxyphosphorylamino) propionic acid isopropyl ester] | 61 | 74 | 1.25E+7 | 163 | Effect on LRV1 (capsid) levels, in words ([1]; 2 days): little effect on LRV1
Nc1ccn([C@@H]2O[C@H](CO)[C@@H](O)[C@H]2F)c(=O)n1 [2′-Fluoro-2′-deoxycytidine] | 87 | 132 | 2.21E+7 | 230 | –

From patent US20190307783A1, “USE OF ANTIVIRALS TO INHIBIT PROTOZOAN VIRUSES” (priority 2016, published 2019)
